Values after ≈ are worked out from the molar mass of the structure shown. Where two headings read alike, the source gives them in different places.
Legend:
[1] = tested on: Giardia intestinalis (ATCC #30888); assay: Antigiardial biological screening (XTT tetrazolium dye procedure); type: cell-based; settings: for IC50: concentration that inhibits giardial growth by 50%, estimated graphically, samples at 10, 3.3 and 1.1 μg/mL, 24 h at 37° C., XTT, NA = inactive; for antigiardial activity/potency in words (SAR discussion): discussion of the IC50 table
Description: Biological Screening. […] Subculturing was done every 48-72 h under a sterile biosafety hood. Tubes were chilled in an ice bath for 10 min. in order to detach the organisms, and 1 mL of cell suspension was added to 14 mL of fresh medium. To carry out the screening, a suspension of Giardia cells was prepared at a concentration of 100,000 cells/mL. 100 μL of the suspension was then added to each well of a Corning 96-well flat-bottomed tissue culture-treated plate. Blank wells received medium only. An additional 125 μL of medium was added to each well, and the plates were incubated at 37° C. for 24 h in an anaerobic chamber filled with nitrogen. […] The plates were further incubated at 37° C. for 24 h. The plates were then processed using a tetrazolium dye (XTT) procedure. Absorbance readings were taken at 450 nm with background at 630 nm subtracted.

Giardia lamblia = settings: biological evaluation of natural products; formononetin and pseudobaptigenin in vitro; cited from earlier work
[2] = Giardia duodenalis, ATCC30888, read-out: IC50

Row | Molecule | IC50 [1] [µg/mL] | other results
1 | O=c1c(-c2cccc(Cl)c2)coc2cc(O)c(Cl)cc12 [P(A5,B27)] | >10.0 | 
2 | Cc1cccc(-c2coc3cc(O)c(F)cc3c2=O)c1 [P(A4,B19)] | <1.1 | antigiardial activity/potency in words (SAR discussion) [1]: enhanced potency
3 | O=c1c(-c2ccc(Cl)cc2)coc2c(F)c(O)ccc12 [P(A1,B8)] | >10.0 | 
4 | O=c1c(-c2ccc3c(c2)OCO3)coc2cc(O)ccc12 [pseudobaptigenin] |  | antigiardial activity (Giardia lamblia): potent antigiardial activity
5 | O=c1c(-c2ccccc2)coc2cc(O)c(Cl)cc12 [P(A5,B1), 6-Chloro-7-hydroxy-3-phenylchromen-4-one] |  | melting point: 279 to 280 °C
6 | Cc1ncc([N+](=O)[O-])n1CCO [metronidazole, reference compound] |  | IC50 [1, 2]: 1.5 µg/mL (≈ 8.76 µM)
7 | O=c1c(-c2ccccc2)coc2cc(O)c(Br)cc12 [P(A6,B1), 6-Bromo-7-hydroxy-3-phenylchromen-4-one] |  | IC50 [1, 2]: 5 µg/mL (≈ 15.8 µM); melting point: 296 to 297 °C (dec.)
8 | COc1ccc(-c2coc3c(F)c(O)ccc3c2=O)cc1 [P(A1,B11)] | <1.1 | antigiardial activity/potency in words (SAR discussion) [1]: enhanced potency
9 | COc1ccc(-c2coc3cc(O)ccc3c2=O)cc1 [formononetin] |  | antigiardial activity (Giardia lamblia): potent antigiardial activity
10 | Cc1ccc(-c2coc3cc(O)c(Br)cc3c2=O)cc1 [P(A6,B20)] | >10.0 | 
11 | O=c1c(-c2cc(F)cc(F)c2)coc2cc(O)c(Cl)cc12 [P(A5,B23)] | 6.7 (≈ 21.7 µM) | 
12 | Cc1ccc(-c2coc3c(Br)c(O)ccc3c2=O)cc1 [P(A3,B20)] | 3.9 (≈ 11.8 µM) | 
13 | COc1ccc(-c2coc3cc(O)c(F)cc3c2=O)cc1 [P(A4,B11)] | >10.0 | 
14 | CCOc1ccc(-c2coc3c(F)c(O)ccc3c2=O)cc1 [P(A1,B18)] | 8.8 (≈ 29.3 µM) | 
15 | O=c1c(-c2cccc(Cl)c2)coc2c(Br)c(O)ccc12 [P(A3,B27)] | 1.9 (≈ 5.4 µM) | 
16 | O=c1c(-c2ccc(Cl)cc2)coc2c(Br)c(O)ccc12 [P(A3,B8)] | 1.9 (≈ 5.4 µM) | 
17 | O=c1c(-c2ccc(Br)cc2)coc2c(F)c(O)ccc12 [P(A1,B17)] | >10.0 | 
18 | O=c1c(-c2ccc(Cl)cc2)coc2c(Cl)c(O)ccc12 [P(A2,B8)] | 4.5 (≈ 14.7 µM) | 
19 | Cc1cccc(-c2coc3c(F)c(O)ccc3c2=O)c1 [P(A1,B19)] | <1.1 | antigiardial activity/potency in words (SAR discussion) [1]: enhanced potency
20 | O=c1c(-c2ccccc2)coc2c(Br)c(O)ccc12 [P(A3,B1), 8-Bromo-7-hydroxy-3-phenylchromen-4-one] |  | IC50 [1, 2]: 1.6 µg/mL (≈ 5.05 µM); melting point: 256 to 258 °C
21 | O=c1c(-c2ccc(F)c(F)c2)coc2c(Cl)c(O)ccc12 [P(A2,B22)] | 3.7 (≈ 12 µM) | 

Row | Molecule | IC50 [1] [µg/mL] | other results
22 | Cc1cccc(-c2coc3cc(O)c(Cl)cc3c2=O)c1 [P(A5,B19)] | 2.5 (≈ 8.72 µM) | 
23 | O=c1c(-c2ccc(Cl)cc2)coc2cc(O)c(F)cc12 [P(A4,B8)] | 6.4 (≈ 22 µM) | 
24 | geranins A [geranin A] |  | antigiardial activity (Giardia lamblia): exhibit antigiardial activity
25 | COc1ccc(-c2coc3c(Br)c(O)ccc3c2=O)cc1 [P(A3,B11)] | <1.1 | antigiardial activity/potency in words (SAR discussion) [1]: enhanced potency
26 | O=c1c(-c2ccc(Br)cc2)coc2cc(O)c(F)cc12 [P(A4,B17)] | 9.0 (≈ 26.9 µM) | 
27 | O=c1c(-c2cccc(F)c2)coc2c(Br)c(O)ccc12 [P(A3,B28)] | <1.1 | antigiardial activity/potency in words (SAR discussion) [1]: enhanced potency
28 | O=c1c(-c2ccc(Br)cc2)coc2c(Br)c(O)ccc12 [P(A3,B17)] | >10.0 | 
29 | O=c1c(-c2ccc(F)cc2)coc2c(F)c(O)ccc12 [P(A1,B9)] | >10.0 | 
30 | O=c1c(-c2cccc(Br)c2)coc2c(Cl)c(O)ccc12 [P(A2,B26)] | <1.1 | 
31 | O=c1c(-c2ccc(Br)cc2)coc2c(Cl)c(O)ccc12 [P(A2,B17)] | 5.7 (≈ 16.2 µM) | 
32 | O=c1c(-c2ccc(F)cc2)coc2c(Cl)c(O)ccc12 [P(A2,B9)] | >10.0 | 
33 | O=c1c(-c2ccc(Cl)c(Cl)c2)coc2cc(O)c(F)cc12 [P(A4,B21)] | >10.0 | 
34 | O=c1c(-c2ccc(F)c(F)c2)coc2cc(O)c(F)cc12 [P(A4,B22)] | 9.4 (≈ 32.2 µM) | 
35 | O=c1c(O)c(-c2ccc(O)c(O)c2)oc2cc(O)cc(O)c12 [quercetin] |  | antigiardial activity (Giardia lamblia): exhibit antigiardial activity
36 | Cc1ccc(-c2coc3c(Cl)c(O)ccc3c2=O)cc1 [P(A2,B20)] | >10.0 | 
37 | Cc1ccc(-c2coc3cc(O)c(F)cc3c2=O)cc1 [P(A4,B20)] | >10.0 | 
38 | O=c1c(-c2cccc(F)c2)coc2cc(O)c(Br)cc12 [P(A6,B28)] | <1.1 | antigiardial activity/potency in words (SAR discussion) [1]: enhanced potency
39 | Cc1cccc(-c2coc3c(Br)c(O)ccc3c2=O)c1 [P(A3,B19)] | <1.1 | antigiardial activity/potency in words (SAR discussion) [1]: enhanced potency
40 | O=c1c(-c2ccc(F)cc2)coc2c(Br)c(O)ccc12 [P(A3,B9)] | 6.8 (≈ 20.3 µM) | 
41 | O=c1c(-c2cccc(F)c2)coc2cc(O)c(F)cc12 [P(A4,B28)] | 4.3 (≈ 15.7 µM) | 
42 | O=c1c(-c2cccc(Cl)c2)coc2c(F)c(O)ccc12 [P(A1,B27)] | <1.1 | 

Row | Molecule | IC50 [1] [µg/mL] | other results
43 | O=c1c(-c2ccc(-c3ccccc3)cc2)coc2cc(O)c(F)cc12 [P(A4,B16)] |  | antigiardial activity/potency in words (SAR discussion) [1]: less activity
44 | O=c1c(-c2ccc(Cl)c(Cl)c2)coc2cc(O)c(Cl)cc12 [P(A5,B21)] | 9.8 (≈ 28.7 µM) | 
45 | Cc1ccc(-c2coc3c(F)c(O)ccc3c2=O)cc1 [P(A1,B20)] | <1.1 | 
46 | O=c1c(-c2cccc(Cl)c2)coc2c(Cl)c(O)ccc12 [P(A2,B27)] | 1.7 (≈ 5.54 µM) | 
47 | COc1cccc(-c2coc3c(Cl)c(O)ccc3c2=O)c1 [P(A2,B29)] | 4.8 (≈ 15.9 µM) | 
48 | O=c1c(O)c(-c2ccc(O)cc2)oc2cc(O)cc(O)c12 [kaempferol] |  | antigiardial activity (Giardia lamblia): exhibit antigiardial activity
49 | O=c1c(-c2ccc(Br)cc2)coc2cc(O)c(Cl)cc12 [P(A5,B17)] | >10.0 | 
50 | O=c1c(-c2ccccc2)coc2c(F)c(O)ccc12 [P(A1,B1)] | <1.1 | 
51 | O=c1c(-c2ccc(-c3ccccc3)cc2)coc2cc(O)c(Br)cc12 [P(A6,B16)] |  | antigiardial activity/potency in words (SAR discussion) [1]: less activity
52 | O=c1c(-c2ccc(-c3ccccc3)cc2)coc2cc(O)c(Cl)cc12 [P(A5,B16)] |  | antigiardial activity/potency in words (SAR discussion) [1]: less activity
53 | O=c1c(-c2ccc(-c3ccccc3)cc2)coc2c(F)c(O)ccc12 [P(A1,B16)] |  | antigiardial activity/potency in words (SAR discussion) [1]: less activity
54 | CCOc1ccc(-c2coc3c(Cl)c(O)ccc3c2=O)cc1 [P(A2,B18)] | >10.0 | 
55 | Cc1cccc(-c2coc3c(Cl)c(O)ccc3c2=O)c1 [P(A2,B19)] | >10.0 | 
56 | O=c1c(-c2cccc(F)c2)coc2c(Cl)c(O)ccc12 [P(A2,B28)] | 5.2 (≈ 17.9 µM) | 
57 | O=c1c(-c2ccc(F)cc2)coc2cc(O)c(F)cc12 [P(A4,B9)] | >10.0 | 
58 | O=c1c(-c2ccccc2)coc2c(Cl)c(O)ccc12 [P(A2,B1), 8-Chloro-7-hydroxy-3-phenylchromen-4-one] |  | IC50 [1, 2]: 1.7 µg/mL (≈ 6.23 µM); melting point: 242 to 244 °C
59 | COc1ccc(-c2coc3c(Cl)c(O)ccc3c2=O)cc1 [P(A2,B11)] | >10.0 | 
60 | O=c1c(-c2cc(F)cc(F)c2)coc2c(Cl)c(O)ccc12 [P(A2,B23)] | <1.1 | 
61 | CCOc1ccc(-c2coc3c(Br)c(O)ccc3c2=O)cc1 [P(A3,B10)] | 9.3 (≈ 25.7 µM) | 
62 | O=c1c(-c2ccc(F)c(F)c2)coc2c(F)c(O)ccc12 [P(A1,B22)] | <1.1 | 
63 | O=c1c(-c2ccccc2)coc2cc(O)c(F)cc12 [P(A4,B1)] | 6.2 (≈ 24.2 µM) | 

Source: patent US7468445B2, “Antigiardial agents and use thereof” (University of Mississippi, priority 2002, dated 2008)
